The target of this assay is T1, PARP-1 (Homo sapiens, UniProt P09874).
T1 construct: gene PARP1
Description: colorimetric PARP assay kit (Trevigen), biotinylated NAD incorporation. The class given is biochemical.

T1 sequence (P09874 2-1014): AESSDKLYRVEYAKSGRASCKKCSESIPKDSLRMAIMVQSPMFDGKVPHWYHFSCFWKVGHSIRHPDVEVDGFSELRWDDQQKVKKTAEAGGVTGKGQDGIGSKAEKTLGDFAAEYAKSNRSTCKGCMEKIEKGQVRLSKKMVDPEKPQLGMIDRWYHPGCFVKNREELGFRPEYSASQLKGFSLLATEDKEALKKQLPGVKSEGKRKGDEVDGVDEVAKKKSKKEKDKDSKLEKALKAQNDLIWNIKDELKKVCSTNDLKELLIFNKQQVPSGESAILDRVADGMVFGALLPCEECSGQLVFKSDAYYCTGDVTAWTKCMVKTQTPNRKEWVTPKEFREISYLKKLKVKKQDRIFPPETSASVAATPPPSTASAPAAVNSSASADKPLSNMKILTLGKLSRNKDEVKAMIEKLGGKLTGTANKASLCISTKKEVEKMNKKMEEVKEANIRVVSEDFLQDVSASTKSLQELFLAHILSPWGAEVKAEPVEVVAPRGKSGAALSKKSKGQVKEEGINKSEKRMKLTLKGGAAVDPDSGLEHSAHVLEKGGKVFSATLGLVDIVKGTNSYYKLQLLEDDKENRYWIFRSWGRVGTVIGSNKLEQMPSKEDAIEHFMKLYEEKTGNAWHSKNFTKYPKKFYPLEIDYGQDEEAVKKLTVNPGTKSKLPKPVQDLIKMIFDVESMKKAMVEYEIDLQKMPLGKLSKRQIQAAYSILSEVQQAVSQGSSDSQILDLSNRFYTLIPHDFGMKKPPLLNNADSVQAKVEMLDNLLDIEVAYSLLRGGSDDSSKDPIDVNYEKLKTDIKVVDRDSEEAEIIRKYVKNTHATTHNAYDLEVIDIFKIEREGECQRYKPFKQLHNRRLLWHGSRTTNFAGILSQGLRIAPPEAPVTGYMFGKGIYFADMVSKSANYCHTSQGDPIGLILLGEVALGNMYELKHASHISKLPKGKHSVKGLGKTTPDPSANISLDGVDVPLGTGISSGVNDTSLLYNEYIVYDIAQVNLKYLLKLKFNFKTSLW

As a reminder, the IC50 is the concentration that inhibits the measured activity by half. On to `NCCS(=O)(=O)O` [TAU, taurine], for which the IC50 was found to be 320 µM.

(Values after PMC2994389 (2010).)
